The values below come from patent US20110190280A1, “Thiazole And Oxazole Kinase Inhibitors” (priority 2007, published 2011).

One test relates to A375P tumor cells. Put plainly: Cell growth inhibition assay (CellTiter-Glo), A375P.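 Note: total ATP luminescence used as proxy for cell number, serial threefold compound dilutions at 0.2% DMSO, growth inhibition expressed versus DMSO vehicle-treated wells.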 To be noted: Homo sapiens, 72 h, read-out: Activity in A375P Tumor Cells. For orientation: ATP-based viability assays read luminescence as a measure of living cells.
In the next test the test system is SK-MEL-28 tumor cells. Put plainly: Cell growth inhibition assay (CellTiter-Glo), SK-MEL-28.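 Note: luminescent total ATP as a proxy for cell number, threefold serial dilutions at 0.2% DMSO, percent growth inhibition versus DMSO vehicle control wells.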 To be noted: Homo sapiens, SK-MEL-28, 72 h, read-out: Activity in SK-MEL-28 Tumor Cells.
In the next test the test system is HT-29 tumor cells. Put plainly: Cell growth inhibition assay (CellTiter-Glo), HT-29.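 Note: ATP content read by luminescence as proxy for cell number, growth inhibition versus DMSO vehicle wells, 0.2% DMSO final, nine serial threefold compound dilutions.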 To be noted: Homo sapiens, HT-29, 72 h, read-out: Activity in HT-29 Tumor Cells.
The next test relates to SK-MEL-3 tumor cells. The test can be described thus: Cell growth inhibition assay (CellTiter-Glo), SK-MEL-3.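 Note: human melanoma cells grown with compound for 3 days in 0.2% DMSO, total ATP read by luminescence as proxy for cell number, growth inhibition versus DMSO-treated wells.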 The following applies: Homo sapiens, SK-MEL3, 72 h, read-out: Activity in SK-MEL-3 Tumor Cells.
For a further test, the target named is B-Raf (Homo sapiens, UniProt P15056). Put plainly: B-Raf Accelerated MEK ATPase assay (BRAMA). Type of test: biochemical. The following applies: BRAMA enzyme assay; class by pIC50; read-out: B-Raf Activity. In short, it runs like this: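 B-Raf activity read as intrinsic MEK ATPase: catalytic activated RAF with non-phosphorylated MEK drives ADP formation, coupled through pyruvate kinase and lactate dehydrogenase to NADH oxidation, independent of ERK phosphorylation.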

The subject of a further test is Colo205 tumor cells. The test can be described thus: Cell growth inhibition assay (CellTiter-Glo), Colo205.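 Note: growth measured via total ATP luminescence (CellTiter-Glo) as a proxy for cell number, inhibition expressed against DMSO-treated control wells, 3-day exposure at 0.2% final DMSO.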 To be noted: Homo sapiens, COLO 205, 72 h, read-out: Activity in Colo205 Tumor Cells.
The target in a further test is EGFR (Homo sapiens, UniProt P00533). The test can be described thus: EGFR kinase autophosphorylation assay (peptide phosphorylation, HTRF). The following applies: 0.8 nM EGFR, class by pIC50. Type of test: biochemical. Here is the method:
(§1) A selection of compounds of the present invention were tested for inhibitory activity against EGFR and ErbB2 kinases in autophosphorylation assays.
(§2) The method measures the ability of the isolated enzyme to catalyse the transfer of the gamma-phosphate from ATP onto the tyrosine residue of a biotinylated synthetic peptide referenced “Peptide C” in Brignola, P. S., et al, (2002) J. Biol. Chem. 277(2):1576-1585. The extent of tyrosine phosphorylation was measured using an anti-phosphotyrosine antibody, and quantified by homogenous time-resolved fluorescence (HTRF).
(§3) Reactions were performed in black 384-well polystyrene flat-bottom plates in a final volume of 20 ul. Assays were performed by adding 10 μl of each of the following solutions, substrate Mix and enzyme mix: The Substrate mix contained 100 mM 3-[N-morpholino]propanesulfonic acid (MOPS) (pH 7.5), 2 mM MnCl2, 20 μM ATP, 0.01% Tween-20, 0.1 mg/mL (BSA), 0.8 uM peptide substrate, and 1 mM dithiothreitol. The enzyme mix contained 100 mM MOPS (pH7.5); 0.01% Tween-20; 0.1 mg/mL BSA, and either 0.8 nM EGFR, 10 nM ErbB2, or 1 nM ErbB4
(§4) The enzyme mix was added to the compound plates and the plates were incubated at 20° C. for 1 hour. The reactions were allowed to proceed for 90 minutes at 20° C. The reactions were then terminated by the addition of 20 μl 100 mM EDTA to each well. 40 μl/well of HTRF detection mix were added to the assay plates. The final concentrations of the detection reagents were: 100 mM HEPES (pH7.5), 0.1 mg/mL BSA, 15 nM streptavidin-labeled allophycocyanin (PerkinElmer), and 1 nM europium-labeled anti-phosphotyrosine antibody (PerkinElmer). Assay plates were left unsealed and were counted in a Wallac Multilabel Counter 1420 (PerkinElmer).
(§5) Compounds under analysis were dissolved in Me2SO to 1.0 mM and serially diluted 1 to 3 with Me2SO through twelve dilutions. 1 μl of each concentration was transferred to the corresponding well of an assay plate. This creates a final compound concentration range from 0.00027 to 47.6 μM.
(§6) The data for dose responses were plotted as % Inhibition calculated with the data reduction formula 100*(1−(U1−C2)/(C1−C2)) versus concentration of compound where U is the unknown value, C1 is the average control value obtained for 4.76% DMSO, and C2 is the average control value obtained for 0.035 M EDTA. Data were fitted with a curve described by:
(§7) where Vmax is the upper asymptote, Y2 is the Y intercept, and K is the IC50. The results for each compound were recorded as pIC50s, calculated as follows: […]
(§8) In the following table: • “+” indicates no pIC50 measurement greater than 6 against EGFR or ErbB2, • “++” indicates at least one pIC50 measurement greater than 6 against EGFR or ErbB2 but no measurement greater than pIC50 of 7; and • “+++” indicates at least one pIC50 measurement of greater than 7 against EGFR or ErbB2.
On the technique in general: Time-resolved FRET reads energy transfer from a long-lived donor to a nearby acceptor.

Another test has as its target ErbB2 (Homo sapiens, UniProt P04626). The test can be described thus: ErbB2 kinase autophosphorylation assay (peptide phosphorylation, HTRF). Type of test: biochemical. The following applies: 10 nM ErbB2, HTRF; class by pIC50. As for the experimental part:
as §1, §2, §3, §4, §5, §6, §7, §8

The structures appear in SMILES notation.

Sequence of ErbB2 (P04626 23-1255): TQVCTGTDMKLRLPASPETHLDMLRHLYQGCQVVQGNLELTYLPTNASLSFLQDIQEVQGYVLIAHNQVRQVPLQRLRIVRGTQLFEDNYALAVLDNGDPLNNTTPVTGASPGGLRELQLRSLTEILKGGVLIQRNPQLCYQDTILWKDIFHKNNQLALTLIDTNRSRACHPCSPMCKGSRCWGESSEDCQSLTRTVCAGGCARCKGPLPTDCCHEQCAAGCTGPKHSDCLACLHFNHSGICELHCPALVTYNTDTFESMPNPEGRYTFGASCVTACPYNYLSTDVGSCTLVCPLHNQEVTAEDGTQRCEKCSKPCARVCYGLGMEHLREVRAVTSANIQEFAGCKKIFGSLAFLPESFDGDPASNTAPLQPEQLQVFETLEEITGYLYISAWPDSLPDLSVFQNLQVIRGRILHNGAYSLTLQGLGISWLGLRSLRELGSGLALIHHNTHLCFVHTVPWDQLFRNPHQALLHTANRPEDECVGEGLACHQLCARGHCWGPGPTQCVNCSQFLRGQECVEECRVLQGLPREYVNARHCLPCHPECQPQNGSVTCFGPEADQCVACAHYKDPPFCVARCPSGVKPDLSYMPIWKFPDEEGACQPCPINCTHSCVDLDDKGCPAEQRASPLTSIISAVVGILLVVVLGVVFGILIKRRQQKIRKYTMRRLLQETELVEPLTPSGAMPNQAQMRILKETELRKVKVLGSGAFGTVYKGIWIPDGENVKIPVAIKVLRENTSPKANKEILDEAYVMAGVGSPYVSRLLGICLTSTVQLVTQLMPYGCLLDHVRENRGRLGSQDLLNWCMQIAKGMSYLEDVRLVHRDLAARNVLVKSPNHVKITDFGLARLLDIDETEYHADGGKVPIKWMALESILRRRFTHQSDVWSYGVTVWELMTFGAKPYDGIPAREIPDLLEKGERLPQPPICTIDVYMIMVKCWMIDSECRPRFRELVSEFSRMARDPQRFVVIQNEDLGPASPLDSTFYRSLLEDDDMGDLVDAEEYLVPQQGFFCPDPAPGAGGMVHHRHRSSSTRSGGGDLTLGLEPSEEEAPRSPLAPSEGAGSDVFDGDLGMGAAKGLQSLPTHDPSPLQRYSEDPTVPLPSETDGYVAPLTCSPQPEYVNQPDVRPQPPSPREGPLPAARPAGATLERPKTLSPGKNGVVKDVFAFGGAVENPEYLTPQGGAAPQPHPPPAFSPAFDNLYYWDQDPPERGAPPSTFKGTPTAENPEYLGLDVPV
Sequence of B-Raf (P15056 whole entry): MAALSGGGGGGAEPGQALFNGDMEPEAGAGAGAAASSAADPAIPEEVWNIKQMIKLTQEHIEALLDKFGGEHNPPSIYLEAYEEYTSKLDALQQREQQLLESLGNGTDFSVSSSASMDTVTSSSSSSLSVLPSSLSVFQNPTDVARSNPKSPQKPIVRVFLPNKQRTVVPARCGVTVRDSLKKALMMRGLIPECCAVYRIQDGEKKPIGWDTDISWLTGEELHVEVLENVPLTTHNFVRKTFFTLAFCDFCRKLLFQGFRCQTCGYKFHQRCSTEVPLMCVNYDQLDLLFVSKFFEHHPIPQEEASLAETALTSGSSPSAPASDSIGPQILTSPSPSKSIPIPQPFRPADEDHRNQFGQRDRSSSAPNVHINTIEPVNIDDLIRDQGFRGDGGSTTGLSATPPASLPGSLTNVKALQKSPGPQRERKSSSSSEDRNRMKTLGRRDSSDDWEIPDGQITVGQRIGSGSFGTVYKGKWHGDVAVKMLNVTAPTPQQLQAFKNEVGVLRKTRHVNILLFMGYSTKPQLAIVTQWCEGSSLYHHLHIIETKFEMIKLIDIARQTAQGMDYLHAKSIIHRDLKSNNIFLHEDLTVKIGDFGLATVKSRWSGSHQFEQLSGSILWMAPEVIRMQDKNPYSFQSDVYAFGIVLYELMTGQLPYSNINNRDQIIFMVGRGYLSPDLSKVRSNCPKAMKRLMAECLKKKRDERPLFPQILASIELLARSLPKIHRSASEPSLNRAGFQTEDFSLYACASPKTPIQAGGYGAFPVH
Sequence of EGFR (P00533 25-1210): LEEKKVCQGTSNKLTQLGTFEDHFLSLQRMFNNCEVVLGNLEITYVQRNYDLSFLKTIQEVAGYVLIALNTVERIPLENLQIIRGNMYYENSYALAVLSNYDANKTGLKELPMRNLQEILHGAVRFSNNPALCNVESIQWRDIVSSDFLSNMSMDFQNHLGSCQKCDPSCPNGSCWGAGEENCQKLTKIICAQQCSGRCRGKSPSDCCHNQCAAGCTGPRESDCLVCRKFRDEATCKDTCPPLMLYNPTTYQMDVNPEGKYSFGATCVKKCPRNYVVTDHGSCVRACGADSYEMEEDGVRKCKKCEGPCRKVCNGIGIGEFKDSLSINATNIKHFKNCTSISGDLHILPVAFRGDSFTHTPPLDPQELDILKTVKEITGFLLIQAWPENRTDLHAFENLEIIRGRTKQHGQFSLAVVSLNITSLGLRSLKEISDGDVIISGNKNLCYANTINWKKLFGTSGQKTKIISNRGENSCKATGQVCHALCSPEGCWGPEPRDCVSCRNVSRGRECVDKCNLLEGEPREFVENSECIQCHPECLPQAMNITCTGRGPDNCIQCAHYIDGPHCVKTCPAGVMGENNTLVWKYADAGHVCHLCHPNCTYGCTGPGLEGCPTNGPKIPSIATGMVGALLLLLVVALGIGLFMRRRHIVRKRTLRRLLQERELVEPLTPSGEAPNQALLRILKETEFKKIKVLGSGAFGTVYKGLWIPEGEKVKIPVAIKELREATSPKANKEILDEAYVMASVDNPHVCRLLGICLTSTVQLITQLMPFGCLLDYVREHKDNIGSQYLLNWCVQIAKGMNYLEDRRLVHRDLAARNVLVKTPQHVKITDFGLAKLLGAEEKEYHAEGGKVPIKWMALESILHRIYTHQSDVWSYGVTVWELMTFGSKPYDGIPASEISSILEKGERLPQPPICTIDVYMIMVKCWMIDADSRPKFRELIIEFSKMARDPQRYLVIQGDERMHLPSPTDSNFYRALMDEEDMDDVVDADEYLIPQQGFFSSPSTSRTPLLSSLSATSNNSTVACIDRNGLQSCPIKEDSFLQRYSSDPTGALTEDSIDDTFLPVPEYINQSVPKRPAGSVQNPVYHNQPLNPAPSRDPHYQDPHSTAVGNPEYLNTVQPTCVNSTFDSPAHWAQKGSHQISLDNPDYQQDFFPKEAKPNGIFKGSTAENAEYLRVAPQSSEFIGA
Description for SK-MEL-3 tumor cells: Cell Growth Inhibition Assays Human colon tumor cells (Colo205) were cultured in RPMI (Mediatech 50-020-PB) containing 10% FBS and 1% penicillin-streptomycin. […] Human melanoma cancer cells (A375-F11S) were cultured in RPMI (Mediatech 50-020-PB) containing 10% FBS, 1% sodium pyruvate, and 1% penicillin-streptomycin. Human colon cancer cells (HT-29) were cultured in high glucose DMEM (Mediatech 50-013-PB) containing 10% FBS and 1% penicillin-streptomycin. Human melanoma cancer cells (SK-MEL-3) were cultured in McCoy's 5A (50-025-PB) containing 15% FBS, and 1% penicillin-streptomycin. All cell lines were maintained at 37° C. in a humidified 5% CO2, 95% air incubator.
The next day, compounds were diluted as follows: For 96-well assays, 13.5 μl of compound in DMSO were diluted using nine (9) serial 1:3 dilutions of 4.5 μl in 9 μl of DMSO. Medium (270 μl/well of RPMI with 10% FBS and 1% penicillin-streptomycin) was added to the plates. Aliquots (7 μl) were added to cells in the final assay giving a final DMSO concentration of 0.2%. For 384-well assays, 15 μl of compound in DMSO were diluted using nine (9) serial 1:3 dilutions of 5 μl in 10 μl of DMSO, followed by a further dilution of 5 μl of compound with 95 μl of medium, of which 2 μl are added to cells in the final assay giving a final DMSO concentration of 0.2%. Cells were incubated at 37° C., 5% CO2 for 3 days.
Total ATP was measured (as a surrogate estimate of cell number) using CellTiter-Glo® (Promega G7571) reagent. Briefly, plates were removed from the incubator and allowed to equilibrate to room temperature for 30 minutes. CellTiter-Glo® (25 μl or 55 μl for 384-well or 96-well assays, respectively) reagent was added to each well and plates were shaken on an orbital plate shaker for 2 minutes. Plates were incubated without shaking for a further 30 minutes and read on an LJL Analyst GT reader in luminometer mode with an integration time of 0.5 seconds per well. Percent inhibition of cell growth was calculated relative to DMSO vehicle-treated control wells.

Take `CCNc1nc(-c2cc(C)cc(OC)c2)c(-c2ccnc(Nc3ccc(N4CCN(CCF)CC4)c(F)c3)n2)s1` [Example 29, 4-{2-(Ethylamino)-4-[3-methyl-5-(methyloxy)phenyl]-1,3-thiazol-5-yl}-N-{3-fluoro-4-[4-(2-fluoroethyl)-1-piperazinyl]phenyl}-2-pyrimidinamine]: the IC50 with A375P tumor cells is less than 500 nM; with SK-MEL-28 tumor cells, less than 500 nM; in the test with HT-29 tumor cells, less than 500 nM; in the test with SK-MEL-3 tumor cells, less than 500 nM; at B-Raf, less than 100 nM; in the test with Colo205 tumor cells it was less than 500 nM. Also, the IC50 against EGFR and on ErbB2 was greater than 1000 nM in each case.
As to `CCc1nc(-c2ccc(CO)c(OC)c2)c(-c2ccnc(Nc3ccc(N4CCN(C(C)=O)CC4)nc3)n2)s1` [Example 55], the IC50 is less than 500 nM in the test with A375P tumor cells; less than 500 nM in the test with SK-MEL-28 tumor cells; less than 500 nM in the test on HT-29 tumor cells; less than 500 nM in the test with SK-MEL-3 tumor cells; less than 100 nM at B-Raf; less than 500 nM with Colo205 tumor cells. Besides, the IC50 against EGFR and on ErbB2 was greater than 1000 nM throughout.
For the compound `COc1cc(C)cc(-c2nc(CNS(C)(=O)=O)sc2-c2ccnc(Nc3ccc(N4CCN(C(C)=O)CC4)nc3)n2)c1` [Example 64, N-({5-(2-{[6-(4-Acetyl-1-piperazinyl)-3-pyridinyl]amino}-4-pyrimidinyl)-4-[3-methyl-5-(methyloxy)phenyl]-1,3-thiazol-2-yl}methyl)methanesulfonamide], the IC50 with A375P tumor cells is less than 500 nM; with SK-MEL-28 tumor cells it was less than 500 nM; in the test with HT-29 tumor cells, less than 500 nM; in the test on SK-MEL-3 tumor cells it was less than 500 nM; on B-Raf, less than 100 nM; in the test with Colo205 tumor cells, less than 500 nM. In addition, the IC50 against EGFR and on ErbB2 was greater than 1000 nM in each case.
For `CCNc1nc(-c2cc(OC)cc(OC)c2)c(-c2ccnc(Nc3ccc(OC4CCN(CCS(C)(=O)=O)CC4)c(F)c3)n2)s1` [Example 10, 4-[4-[3,5-Bis(methyloxy)phenyl]-2-(ethylamino)-1,3-thiazol-5-yl]-N-[3-fluoro-4-({1-[2-(methylsulfonyl)ethyl]-4-piperidinyl}oxy)phenyl]-2-pyrimidinamine], the IC50 was less than 500 nM with A375P tumor cells; less than 500 nM in the test on SK-MEL-28 tumor cells; less than 500 nM with HT-29 tumor cells; less than 500 nM in the test with SK-MEL-3 tumor cells; less than 100 nM on B-Raf; less than 500 nM in the test with Colo205 tumor cells. For the same compound, the IC50 on EGFR and against ErbB2 was greater than 1000 nM in each case.
Regarding `COc1cc(C)cc(-c2nc(C(C)C)sc2-c2ccnc(Nc3ccc(N4CCN(C(C)=O)CC4)nc3)n2)c1` [Example 63, N-[6-(4-Acetyl-1-piperazinyl)-3-pyridinyl]-4-{2-(1-methylethyl)-4-[3-methyl-5-(methyloxy)phenyl]-1,3-thiazol-5-yl}-2-pyrimidinamine], the IC50 in the test on A375P tumor cells is less than 500 nM; in the test with SK-MEL-28 tumor cells, less than 500 nM; with HT-29 tumor cells it was less than 500 nM; with SK-MEL-3 tumor cells, less than 500 nM; at B-Raf, less than 100 nM; with Colo205 tumor cells it was less than 500 nM. For the same compound, the IC50 against EGFR and against ErbB2 was greater than 1000 nM in each case.
In the case of `CCNc1nc(-c2cc(C)cc(OC)c2)c(-c2ccnc(Nc3ccc(N4CCN(C(=O)COC)CC4)nc3)n2)s1` [Example 37, 4-{2-(Ethylamino)-4-[3-methyl-5-(methyloxy)phenyl]-1,3-thiazol-5-yl}-N-(6-{4-[(methyloxy)acetyl]-1-piperazinyl}-3-pyridinyl)-2-pyrimidinamine], the IC50 is less than 500 nM in the test with A375P tumor cells; less than 500 nM in the test on SK-MEL-28 tumor cells; less than 500 nM in the test on HT-29 tumor cells; less than 500 nM with SK-MEL-3 tumor cells; less than 100 nM at B-Raf; less than 500 nM in the test with Colo205 tumor cells. The IC50 at EGFR and at ErbB2 was greater than 1000 nM throughout.
As for `CCc1nc(-c2cc(C)cc(OC)c2)c(-c2ccnc(Nc3ccc(OCCO)c(C#N)c3)n2)s1` [Example 107], the IC50 with A375P tumor cells was 500 to 5000 nM; with SK-MEL-28 tumor cells, 500 to 5000 nM; in the test with HT-29 tumor cells, less than 500 nM; in the test on SK-MEL-3 tumor cells, less than 500 nM; on B-Raf, less than 100 nM; in the test on Colo205 tumor cells, less than 500 nM. Besides, the IC50 against EGFR and at ErbB2 was greater than 1000 nM throughout.
Consider `CCNc1nc(-c2cc(OC)cc(OC)c2)c(-c2ccnc(Nc3ccc(N4CCN(C(C)=O)CC4)nc3)n2)s1` [Example 4, N-[6-(4-Acetyl-1-piperazinyl)-3-pyridinyl]-4-[4-[3,5-bis(methyloxy)phenyl]-2-(ethylamino)-1,3-thiazol-5-yl]-2-pyrimidinamine], for which the IC50 in the test on A375P tumor cells is less than 500 nM; with SK-MEL-28 tumor cells it was less than 500 nM; in the test with HT-29 tumor cells, less than 500 nM; in the test on SK-MEL-3 tumor cells, less than 500 nM; at B-Raf, less than 100 nM; with Colo205 tumor cells, less than 500 nM. In addition, the IC50 at EGFR and at ErbB2 was greater than 1000 nM each time.
As to `CCNc1nc(-c2cc(OC)cc(OC)c2)c(-c2ccnc(Nc3ccc(OC4CCN(CCS(C)(=O)=O)CC4)c(F)c3)n2)o1` [Example 82], the IC50 with A375P tumor cells was greater than 5000 nM; in the test on SK-MEL-28 tumor cells it was 500 to 5000 nM; in the test with HT-29 tumor cells it was less than 500 nM; with SK-MEL-3 tumor cells it was less than 500 nM; on B-Raf, less than 100 nM; in the test with Colo205 tumor cells it was less than 500 nM. Also, the IC50 against EGFR and against ErbB2 was greater than 1000 nM throughout.
